Experimental data taken from patent US10695334B2, “Heteroaromatic carboxamide derivatives as plasma kallikrein inhibitors” (Boehringer Ingelheim International GmbH, priority 2018, dated 2020).
pIC50, pKi: −log10 of the molar value.

What was measured:
Assay type in all cases: biochemical
Human PKK [1] = target: T1, Human PKK (Homo sapiens (Human), UniProt P03952); test: Inhibition of PKK (Ki), kinetic assay; settings: 24° C., IC50 corrected for KM
Procedure: Measurements were performed in a kinetic interval every 2nd minute for 16 min using a Spectramax M5 (Molecular Devices) with the following settings of the wavelength excitation of 350 nm and wavelength emission of 450 nm. The number of the compound corresponds to the number of the Example in the experimental section.
The pIC50 values were then fitted using a four-parametric fitting procedure using GraphPad Prism (version 6; GraphPad Software, Inc.).
(§1) Where the IC50 is in molar and the KM value in mM.

Human PKK [2] = target: T1, Human PKK; test: Inhibition of PKK, endpoint assay (human PKK); settings: substrate H-Pro-Phe-Arg-AMC, 1 h room temperature
Procedure: Subsequently, PPACK II (Calbiochem) was added as a stop solution to achieve a final concentration of 1 μM and fluorescence was measured using an Envision Reader (PerkinElmer) with the wavelength excitation setting of 355 nm and the wavelength emission setting of 460 nm.

human TK1 = human TK1 (Homo sapiens (Human), UniProt P06870); test: Inhibition of TK1 (Ki); settings: column head prints IC50, text above the table says Ki values
Procedure: The ability of compounds of formula (I) to inhibit plasma kallikrein (PKK), Factor Xlla (FXIIa), Factor Xla (FXIa), Factor Xa (FXa), Factor Ila (alpha-thrombin; FIIa), plasmin, trypsin, tissue kallikrein 1 (TK1), Factor VIIa (FVIIa), or FVIIa complexed with Tissue Factor, phospholipids and CaCl2 (FVIIa/TF/PL/CaCl2) was determined using the following biochemical assays in assay buffer (100 mM Tris, 150 mM NaCL, adjusted to a pH of 7.8 with HCl, and containing 0.1% (w/v) BSA and 0.05% (v/v) Tween20) in the presence of 1% (v/v) DMSO: EVALUATION OF THE INHIBITION OF PKK USING AN ENDPOINT ASSAY Human PKK (0.01 U/mL; Enzyme Research Laboratories) or rat PKK (0.625 nM; produced in-house) was incubated for 1 h at room temperature with 0.10 μM fluorogenic substrate H-Pro-Phe-Arg-AMC (11295 from Bachem) and various concentrations of the test compound in assay buffer. Subsequently, PPACK II (Calbiochem) was added as a stop solution to achieve a final concentration of 1 μM and fluorescence was measured using an Envision Reader (PerkinElmer) with the wavelength excitation setting of 355 nm and the wavelength emission setting of 460 nm.
Prior to the assay, human TK1 (R&D Systems) was activated by incubation with human trypsin (Calbiochem) in a 1:10,000 ratio for 15 min at 37° C. For assaying TK1 inhibitory activity, activated TK1 (31.25 nM or 1 U/mL) was incubated at 24° C. with 0.1 mM fluorogenic substrate H-Pro-Phe-Arg-AMC (11295 from Bachem) and various concentrations of the test compound in assay buffer. Measurements were performed in a kinetic interval every 2nd minute for 16 min using a Spectramax M5 (Molecular Devices) with the following settings of the wavelength excitation of 350 nm and wavelength emission of 450 nm.
The average Vmax values for the time interval from 2 to 12 min after initiation of the assay (expressed as either delta OD/min for assays using a chromogenic substrate or delta RFU/min for assays using a fluorigenic substrate, respectively) were plotted versus the Log of the concentration in molar of the evaluated inhibitor compound. The pIC50 values were then fitted using a four-parametric fitting procedure using GraphPad Prism (version 6; GraphPad Software, Inc.). Respective Ki values were obtained by correction of the IC50 values for the respective KM value of the used substrate (see Table A for the obtained KM values of the used substrates) using the following formula: […]
as §1

[3] = target: PKK in kaolin activated human platelet poor plasma (Homo sapiens (Human), UniProt P03952); test: Inhibition of PKK in kaolin activated human PPP; settings: global fit over 25, 75, 250, 750 μg/mL kaolin
Procedure: Platelet poor plasma (PPP) obtained from human wholeblood, anticoagulated with Na-Citrat, was incubated with various concentrations of the test compound together with either 25, 75, 250, or 750 μg/mL kaolin in assay buffer for 20 min at 37° C. such that for each kaolin dose used a concentration response was obtained for the test compound.

Chain of human TK1 (P06870 25-262): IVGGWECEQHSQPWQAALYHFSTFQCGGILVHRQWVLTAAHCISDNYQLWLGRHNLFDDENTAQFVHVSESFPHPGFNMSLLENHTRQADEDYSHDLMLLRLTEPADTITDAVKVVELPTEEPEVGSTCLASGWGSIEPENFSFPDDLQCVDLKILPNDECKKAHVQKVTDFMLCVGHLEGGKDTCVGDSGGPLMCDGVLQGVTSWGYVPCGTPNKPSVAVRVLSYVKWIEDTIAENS
Chain of PKK in kaolin activated human platelet poor plasma (P03952 391-638): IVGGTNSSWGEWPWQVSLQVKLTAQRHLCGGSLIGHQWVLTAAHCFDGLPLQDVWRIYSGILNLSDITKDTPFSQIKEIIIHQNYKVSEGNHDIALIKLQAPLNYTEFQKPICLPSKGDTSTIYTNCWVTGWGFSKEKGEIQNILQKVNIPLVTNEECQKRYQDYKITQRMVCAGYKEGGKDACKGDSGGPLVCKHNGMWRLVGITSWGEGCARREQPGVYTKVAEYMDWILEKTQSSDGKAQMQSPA
Chain of PKK in kaolin activated human platelet poor plasma (P03952 20-390 partner): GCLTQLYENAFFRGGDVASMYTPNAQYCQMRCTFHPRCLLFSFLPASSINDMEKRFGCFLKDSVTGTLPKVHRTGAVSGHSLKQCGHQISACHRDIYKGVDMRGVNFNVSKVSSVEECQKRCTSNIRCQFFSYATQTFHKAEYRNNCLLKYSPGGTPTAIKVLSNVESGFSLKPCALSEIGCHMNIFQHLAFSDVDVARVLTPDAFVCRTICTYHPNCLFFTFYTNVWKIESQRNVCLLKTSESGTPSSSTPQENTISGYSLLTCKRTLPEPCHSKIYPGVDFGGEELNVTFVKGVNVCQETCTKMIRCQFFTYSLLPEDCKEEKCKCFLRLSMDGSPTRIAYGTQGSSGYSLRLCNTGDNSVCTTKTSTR
T1 sequence (P03952 391-638): as the sequence (P03952 391-638) above
T1 sequence (P03952 20-390 partner): as the sequence (P03952 20-390 partner) above

| Compound | pKi (Human PKK [1]) | pIC50 (Human PKK [2]) | pIC50 (human TK1) | IC90 [3] [nM] |
| --- | --- | --- | --- | --- |
| Cc1nc(N2C[C@@H]3[C@H](CO)[C@@H]3C2)ccc1Cn1cnc(C(=O)N[C@@H]2CCc3c2n[nH]c3C)c1 (stereo in doubt) [Example 99, 1-({6-[(1R,5S,6S)-6-(Hydroxymethyl)-3-aza-bicyclo[3.1.0]hexan-3-yl]-2-methylpyridin-3-yl}-methyl)-N-[(6R)-3-methyl-2H,4H,5H,6H-cyclo-penta[c]pyrazol-6-yl]-1H-imidazole-4-carboxamide] | 9.00 | 9.00 | < 5.00 | 388 |
| Cc1nc(N2CC3CC3C2)ccc1Cn1cc(C(=O)NC2CCc3c(C)n[nH]c32)cn1 (stereo not shown) [Example 1, 1-[(6-{3-Azabicyclo[3.1.0]hexan-3-yl}-2-methylpyridin-3-yl)methyl]-N-{3-methyl-1H,4H,5H,6H-cyclopenta[c]pyrazol-6-yl}-1H-pyrazole-4-carboxamide] | 9.00 | 8.70 | < 5.00 | 705 |
| Cc1nc(N2CC3CC3C2)ccc1Cn1cc(C(=O)N[C@@H]2CCc3c(C)n[nH]c32)cn1 (stereo partly drawn) [Example 3, 1-[(6-{3-Azabicyclo[3.1.0]hexan-3-yl}-2-methylpyridin-3-yl)methyl]-N-[(6R)-3-methyl-1H,4H,5H,6H-cyclopenta[c]pyrazol-6-yl]-1H-pyrazole-4-carboxamide] | 9.30 | 9.10 | < 5.00 | 679 |
| Cc1nc(N2CC3C(C2)C3(F)F)ccc1Cn1cc(C(=O)N[C@@H]2CCc3c(C)n[nH]c32)cn1 (stereo partly drawn) [Example 5, 1-[(6-{6,6-Difluoro-3-azabicyclo[3.1.0]hexan-3-yl}-2-methylpyridin-3-yl)methyl]-N-[(6R)-3-methyl-1H,4H,5H,6H-cyclopenta[c]pyrazol-6-yl]-1H-pyrazole-4-carboxamide] | 9.52 | 9.22 | < 5.00 | 241 |
| Cc1nc(N2CC3CC3C2)ccc1Cc1csc(C(=O)N[C@@H]2CCc3c(C)n[nH]c32)c1 (stereo partly drawn) [Example 6, 4-[(6-{3-Azabicyclo[3.1.0]hexan-3-yl}-2-methylpyridin-3-yl)methyl]-N-[(6R)-3-methyl-1H,4H,5H,6H-cyclopenta[c]pyrazol-6-yl]thiophene-2-carboxamide] | 9.30 | 9.15 | < 5.00 | 291 |
| Cc1nc(N2CC3CC3C2)ccc1Cc1c[nH]c(C(=O)N[C@@H]2CCc3c(C)n[nH]c32)c1 (stereo partly drawn) [Example 7, 4-[(6-{3-Azabicyclo[3.1.0]hexan-3-yl}-2-methylpyridin-3-yl)methyl]-N-[(6R)-3-methyl-1H,4H,5H,6H-cyclopenta[c]pyrazol-6-yl]-1H-pyrrole-2-carboxamide] | 9.15 | 9.00 | < 5.00 | 342 |
| Cc1nc(N2CC3CC3C2)ccc1Cc1cc(C(=O)N[C@@H]2CCc3c(C)n[nH]c32)sc1C#N (stereo partly drawn) [Example 8, 4-[(6-{3-Azabicyclo[3.1.0]hexan-3-yl}-2-methylpyridin-3-yl)methyl]-5-cyano-N-[(6R)-3-methyl-1H,4H,5H,6H-cyclopenta[c]pyrazol-6-yl]thiophene-2-carboxamide] | 8.52 | 8.40 | < 5.00 | 1820 |
| Cc1nc(N2CC3CC3C2)ccc1Cn1cc(C(=O)N[C@@H]2CCc3c(C)n[nH]c32)c2cncnc21 (stereo partly drawn) [Example 17, 7-[(6-{3-Azabicyclo[3.1.0]hexan-3-yl}-2-methyl-pyridin-3-yl)methyl]-N-[(6R)-3-methyl-1H,4H,5H,6H-cylcopenta[c]pyrazol-6-yl]-7H-pyrrolo[2,3-d]pyrimidine-5-carboxamide] | 10.00 | 9.05 | < 5.00 | – |
| Cc1nc(N2CC3C(C2)C3(F)F)ncc1Cn1cc(C(=O)N[C@@H]2CCc3c(C)n[nH]c32)c2cncnc21 (stereo partly drawn) [Example 21, 7-[(2-{6,6-Difluoro-3-azabicyclo[3.1.0]hexan-3-yl}-4-methylpyrimidin-5-yl)methyl]-N-[(6R)-3-methyl-1H,4H,5H,6H-cyclopenta[c]pyrazol-6-yl]-7H-pyrrolo[2,3-d]pyrimidine-5-carboxamide] | 10.00 | 9.00 | < 5.00 | – |
| Cc1nc(N2CC3CC3C2)ncc1Cn1cc(C(=O)N[C@@H]2CCc3c(C)n[nH]c32)c2cncnc21 (stereo partly drawn) [Example 23, 7-[(2-{3-Azabicyclo[3.1.0]hexan-3-yl}-4-methyl-pyrimidin-5-yl)methyl]-N-[(6R)-3-methyl-1H,4H,5H,6H-cyclopenta[c]pyrazol-6-yl]-7H-pyrrolo[2,3-d]pyrimidine-5-carboxamide] | 9.52 | 8.70 | < 5.00 | – |

Results, then the compound that gave them:

| pKi (Human PKK [1]) | pIC50 (Human PKK [2]) | pIC50 (human TK1) | IC90 [3] [nM] | Compound |
| --- | --- | --- | --- | --- |
| 8.30 | 8.15 | < 5.00 | 3480 | Cc1nc(N2CC3CC3C2)ccc1Cn1nnc(C(=O)N[C@@H]2CCc3c(C)n[nH]c32)n1 (stereo partly drawn) [Example 9, 2-[(6-{3-Azabicyclo[3.1.0]hexan-3-yl}-2-methylpyridin-3-yl)methyl]-N-[(6R)-3-methyl-1H,4H,5H,6H-cyclopenta[c]pyrazol-6-yl]-2H-1,2,3,4-tetrazole-5-carboxamide] |
| – | 9.00 | – | 598 | Cc1nc(N2CC3(CC3)C2)ccc1Cn1cc(C(=O)N[C@@H]2CCc3c(C)n[nH]c32)cn1 [Example 11] |
| 10.00 | 9.05 | < 5.00 | – | COCc1nn(Cc2ccc(N3CC4CC4C3)nc2C)cc1C(=O)N[C@@H]1CCc2c(C)n[nH]c21 (stereo partly drawn) [Example 16, 1-[(6-{3-Azabicyclo[3.1.0]hexan-3-yl}-2-methyl-pyridin-3-yl)methyl]-3-(methoxymethyl)-N-[(6R)-3-methyl-1H,4H,5H,6H-cyclopenta[c]pyrazol-6-yl]-1H-pyrazole-4-carboxamide] |
| 9.52 | 9.00 | < 5.00 | – | Cc1nc(N2CC3CC3C2)ccc1Cn1cc(C(=O)N[C@@H]2CCc3c(C)n[nH]c32)c(C)n1 (stereo partly drawn) [Example 19, 1-[(6-{3-Azabicyclo[3.1.0]hexan-3-yl}-2-methyl-pyridin-3-yl)methyl]-3-methyl-N-[(6R)-3-methyl-1H,4H,5H,6H-cyclopenta[c]pyrazol-6-yl]-1H-pyrazole-4-carboxamide] |
| 9.70 | 9.00 | < 5.00 | – | COc1nn(Cc2ccc(N3CC4CC4C3)nc2C)cc1C(=O)N[C@@H]1CCc2c(C)n[nH]c21 (stereo partly drawn) [Example 20, 1-[(6-{3-Azabicyclo[3.1.0]hexan-3-yl}-2-methyl-pyridin-3-yl)methyl]-3-methoxy-N-[(6R)-3-methyl-1H,4H,5H,6H-cyclopenta[c]pyrazol-6-yl]-1H-pyrazole-4-carboxamide] |
| 10.00 | 8.70 | < 5.00 | – | COCc1nn(Cc2ccc(N3CC4(CC4)C3)nc2C)cc1C(=O)N[C@@H]1CCc2c(C)n[nH]c21 [Example 22, 1-[(6-{5-Azaspiro[2.3]hexan-5-yl}-2-methylpyridin-3-yl)methyl]-3-(methoxymethyl)-N-[(6R)-3-methyl-1H,4H,5H,6H-cyclopenta[c]pyrazol-6-yl]-1H-pyrazole-4-carboxamide] |
| 9.00 | 8.70 | – | 545 | Cc1nc(N2CC(C)(C)C2)ccc1Cn1cc(C(=O)N[C@@H]2CCc3c2n[nH]c3C)cn1 [Example 67, 1-{[6-(3,3-Dimethylazetidin-1-yl)-2-methylpyridin-3-yl]methyl}-N-[(6R)-3-methyl-2H,4H,5H,6H-cyclopenta[c]pyrazol-6-yl]-1H-pyrazole-4-carboxamide] |
